Assay results: ChEMBL document CHEMBL5465560, “Selectivity Literature for EUbOPEN Chemogenomic Library” (2024)

Tests used:
[1] = biological target: Cyclin-dependent kinase 11B (Homo sapiens) (UniProt P21127); settings: at 10 µM
[2] = biological target: Tyrosine-protein kinase BAZ1B (Homo sapiens) (UniProt Q9UIG0); experiment: Selectivity interaction (Bromodomain panel (DSF asssay)) EUB0000270b BAZ1B
[3] = biological target: Serine/threonine-protein kinase MARK2 (Homo sapiens) (UniProt Q7KZI7); experiment: Selectivity interaction (ActivX KiNativ screen (kinase selectivity in THP-1 cell lysates)) EUB0000639a MARK2; type: subcellular; settings: lysate, at 5 µM
[4] = biological target: T1, Serine/threonine-protein kinase Nek9 (Homo sapiens) (UniProt Q8TD19); experiment: Selectivity interaction (ActivX KiNativ screen (kinase selectivity in THP-1 cell lysates)) EUB0000639a NEK9; type: subcellular; settings: lysate, at 1 µM
T1 sequence (whole entry): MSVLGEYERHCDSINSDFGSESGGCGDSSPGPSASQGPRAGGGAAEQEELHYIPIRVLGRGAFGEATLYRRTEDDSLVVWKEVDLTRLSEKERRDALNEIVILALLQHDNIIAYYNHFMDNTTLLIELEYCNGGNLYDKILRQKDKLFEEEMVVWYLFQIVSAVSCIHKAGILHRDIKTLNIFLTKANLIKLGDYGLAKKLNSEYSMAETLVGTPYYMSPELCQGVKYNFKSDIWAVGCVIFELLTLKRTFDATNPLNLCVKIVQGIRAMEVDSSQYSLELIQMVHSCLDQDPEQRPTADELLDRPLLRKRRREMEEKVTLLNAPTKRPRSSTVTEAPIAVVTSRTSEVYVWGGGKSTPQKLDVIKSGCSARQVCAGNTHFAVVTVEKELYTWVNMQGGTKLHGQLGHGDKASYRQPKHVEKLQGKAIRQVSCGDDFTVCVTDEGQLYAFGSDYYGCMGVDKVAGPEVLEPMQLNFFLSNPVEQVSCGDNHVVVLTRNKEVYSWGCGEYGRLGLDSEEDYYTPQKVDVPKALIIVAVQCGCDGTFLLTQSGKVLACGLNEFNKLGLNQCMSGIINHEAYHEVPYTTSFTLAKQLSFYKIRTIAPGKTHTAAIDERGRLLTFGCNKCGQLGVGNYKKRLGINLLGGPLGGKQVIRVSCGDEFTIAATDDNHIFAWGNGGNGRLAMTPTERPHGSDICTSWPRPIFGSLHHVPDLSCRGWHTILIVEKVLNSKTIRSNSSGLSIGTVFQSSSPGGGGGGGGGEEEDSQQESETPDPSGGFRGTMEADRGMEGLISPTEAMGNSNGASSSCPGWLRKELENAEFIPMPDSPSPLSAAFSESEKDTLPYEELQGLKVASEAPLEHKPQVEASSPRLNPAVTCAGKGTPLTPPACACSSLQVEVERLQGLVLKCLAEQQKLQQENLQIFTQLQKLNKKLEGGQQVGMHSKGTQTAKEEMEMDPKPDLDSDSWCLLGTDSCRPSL

Activated CDC42 kinase 1 = Activated CDC42 kinase 1 (Homo sapiens, UniProt Q07912); experiment: Selectivity interaction (Ambit KINOMEscan and KiNATiv profiling in Jurkat cells) EUB0000090b TNK2; type: cell-based; settings: at 1 µM
[5] = biological target: T2, Serine/threonine-protein kinase 3 (Homo sapiens) (UniProt Q13188); experiment: Selectivity interaction (Upstate Kinase Profiler service (Millipore)) EUB0000056c STK3; settings: at 1 µM
T2 sequence (whole entry): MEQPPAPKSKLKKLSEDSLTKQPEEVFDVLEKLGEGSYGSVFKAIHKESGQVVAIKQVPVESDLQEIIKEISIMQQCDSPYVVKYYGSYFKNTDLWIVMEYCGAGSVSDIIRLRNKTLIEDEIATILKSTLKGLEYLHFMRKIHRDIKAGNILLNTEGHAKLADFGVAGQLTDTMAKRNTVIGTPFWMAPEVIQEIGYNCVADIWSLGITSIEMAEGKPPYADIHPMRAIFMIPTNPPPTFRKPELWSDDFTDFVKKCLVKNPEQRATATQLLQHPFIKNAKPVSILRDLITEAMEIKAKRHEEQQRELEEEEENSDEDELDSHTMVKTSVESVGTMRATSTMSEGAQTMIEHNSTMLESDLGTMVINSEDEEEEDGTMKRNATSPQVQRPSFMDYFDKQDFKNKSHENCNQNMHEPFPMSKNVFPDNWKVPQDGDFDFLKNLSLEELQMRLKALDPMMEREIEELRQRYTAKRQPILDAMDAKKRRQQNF

[6] = biological target: T3, Tyrosine-protein kinase Mer (Homo sapiens) (UniProt Q12866); experiment: Selectivity interaction (KinomeScan (DiscoverX)) EUB0000695a MERTK; settings: at 100 nM
T3 sequence (whole entry): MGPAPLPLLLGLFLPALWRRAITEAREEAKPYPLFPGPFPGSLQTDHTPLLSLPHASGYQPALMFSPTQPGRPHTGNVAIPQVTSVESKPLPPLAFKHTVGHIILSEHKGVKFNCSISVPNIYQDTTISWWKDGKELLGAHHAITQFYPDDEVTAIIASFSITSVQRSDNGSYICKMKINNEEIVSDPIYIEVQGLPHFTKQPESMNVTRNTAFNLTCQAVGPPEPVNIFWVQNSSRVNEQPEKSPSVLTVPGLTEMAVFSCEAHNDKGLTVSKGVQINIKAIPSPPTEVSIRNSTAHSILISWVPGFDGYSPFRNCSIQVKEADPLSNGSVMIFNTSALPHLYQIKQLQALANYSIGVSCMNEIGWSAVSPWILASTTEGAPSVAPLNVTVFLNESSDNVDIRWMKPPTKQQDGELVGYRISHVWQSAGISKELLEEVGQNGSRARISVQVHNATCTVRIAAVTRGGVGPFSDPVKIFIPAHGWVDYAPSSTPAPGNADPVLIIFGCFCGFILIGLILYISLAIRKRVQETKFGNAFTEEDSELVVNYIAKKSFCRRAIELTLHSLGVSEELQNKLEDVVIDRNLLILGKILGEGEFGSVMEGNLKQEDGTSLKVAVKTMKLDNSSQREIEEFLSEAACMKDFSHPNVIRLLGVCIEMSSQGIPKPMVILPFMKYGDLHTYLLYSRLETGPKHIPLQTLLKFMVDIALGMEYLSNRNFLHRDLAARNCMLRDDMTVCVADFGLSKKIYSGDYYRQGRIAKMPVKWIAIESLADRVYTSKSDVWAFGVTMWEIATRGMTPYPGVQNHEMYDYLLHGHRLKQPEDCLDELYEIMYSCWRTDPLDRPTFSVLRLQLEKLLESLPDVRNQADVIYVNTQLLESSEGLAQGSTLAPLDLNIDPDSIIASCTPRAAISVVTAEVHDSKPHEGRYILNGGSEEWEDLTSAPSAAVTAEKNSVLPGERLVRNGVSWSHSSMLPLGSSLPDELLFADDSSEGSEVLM

[7] = biological target: Cyclin-dependent kinase 3 (Homo sapiens) (UniProt Q00526); experiment: Selectivity interaction (KinomeScan (DiscoverX)) EUB0000607a CDK3; settings: at 10 µM
Cyclin-dependent kinase 3 (Homo sapiens), sequence (Q00526 whole entry, looked up): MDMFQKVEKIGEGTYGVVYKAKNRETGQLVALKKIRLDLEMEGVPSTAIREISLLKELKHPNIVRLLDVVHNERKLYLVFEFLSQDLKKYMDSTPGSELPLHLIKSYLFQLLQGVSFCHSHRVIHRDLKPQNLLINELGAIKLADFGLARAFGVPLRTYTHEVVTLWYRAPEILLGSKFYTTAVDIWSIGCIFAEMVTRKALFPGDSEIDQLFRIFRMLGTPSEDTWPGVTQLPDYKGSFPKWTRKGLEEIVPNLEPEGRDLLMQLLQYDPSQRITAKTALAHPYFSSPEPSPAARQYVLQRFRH

Serine/threonine-protein kinase MARK2 (Homo sapiens), sequence (Q7KZI7 whole entry): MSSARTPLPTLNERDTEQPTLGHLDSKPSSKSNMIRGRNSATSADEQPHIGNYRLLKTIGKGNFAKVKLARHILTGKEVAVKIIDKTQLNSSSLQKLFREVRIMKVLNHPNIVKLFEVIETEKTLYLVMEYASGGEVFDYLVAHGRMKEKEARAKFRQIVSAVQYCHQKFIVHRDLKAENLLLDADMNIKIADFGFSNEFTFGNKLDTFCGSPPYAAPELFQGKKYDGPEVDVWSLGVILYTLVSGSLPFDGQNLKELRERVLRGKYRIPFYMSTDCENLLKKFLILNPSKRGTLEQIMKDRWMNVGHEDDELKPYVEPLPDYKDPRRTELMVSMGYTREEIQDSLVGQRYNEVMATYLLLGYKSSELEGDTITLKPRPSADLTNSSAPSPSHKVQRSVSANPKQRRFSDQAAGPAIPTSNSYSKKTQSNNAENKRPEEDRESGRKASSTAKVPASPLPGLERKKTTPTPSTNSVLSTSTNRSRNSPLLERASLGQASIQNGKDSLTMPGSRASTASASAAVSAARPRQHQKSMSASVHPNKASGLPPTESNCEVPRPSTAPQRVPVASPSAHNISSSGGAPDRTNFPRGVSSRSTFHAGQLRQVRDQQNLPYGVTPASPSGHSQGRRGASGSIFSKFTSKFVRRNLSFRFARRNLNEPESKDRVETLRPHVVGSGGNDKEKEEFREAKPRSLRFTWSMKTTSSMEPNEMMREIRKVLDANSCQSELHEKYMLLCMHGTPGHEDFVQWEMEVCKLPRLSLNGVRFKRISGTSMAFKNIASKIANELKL
Activated CDC42 kinase 1, sequence (Q07912 whole entry, looked up): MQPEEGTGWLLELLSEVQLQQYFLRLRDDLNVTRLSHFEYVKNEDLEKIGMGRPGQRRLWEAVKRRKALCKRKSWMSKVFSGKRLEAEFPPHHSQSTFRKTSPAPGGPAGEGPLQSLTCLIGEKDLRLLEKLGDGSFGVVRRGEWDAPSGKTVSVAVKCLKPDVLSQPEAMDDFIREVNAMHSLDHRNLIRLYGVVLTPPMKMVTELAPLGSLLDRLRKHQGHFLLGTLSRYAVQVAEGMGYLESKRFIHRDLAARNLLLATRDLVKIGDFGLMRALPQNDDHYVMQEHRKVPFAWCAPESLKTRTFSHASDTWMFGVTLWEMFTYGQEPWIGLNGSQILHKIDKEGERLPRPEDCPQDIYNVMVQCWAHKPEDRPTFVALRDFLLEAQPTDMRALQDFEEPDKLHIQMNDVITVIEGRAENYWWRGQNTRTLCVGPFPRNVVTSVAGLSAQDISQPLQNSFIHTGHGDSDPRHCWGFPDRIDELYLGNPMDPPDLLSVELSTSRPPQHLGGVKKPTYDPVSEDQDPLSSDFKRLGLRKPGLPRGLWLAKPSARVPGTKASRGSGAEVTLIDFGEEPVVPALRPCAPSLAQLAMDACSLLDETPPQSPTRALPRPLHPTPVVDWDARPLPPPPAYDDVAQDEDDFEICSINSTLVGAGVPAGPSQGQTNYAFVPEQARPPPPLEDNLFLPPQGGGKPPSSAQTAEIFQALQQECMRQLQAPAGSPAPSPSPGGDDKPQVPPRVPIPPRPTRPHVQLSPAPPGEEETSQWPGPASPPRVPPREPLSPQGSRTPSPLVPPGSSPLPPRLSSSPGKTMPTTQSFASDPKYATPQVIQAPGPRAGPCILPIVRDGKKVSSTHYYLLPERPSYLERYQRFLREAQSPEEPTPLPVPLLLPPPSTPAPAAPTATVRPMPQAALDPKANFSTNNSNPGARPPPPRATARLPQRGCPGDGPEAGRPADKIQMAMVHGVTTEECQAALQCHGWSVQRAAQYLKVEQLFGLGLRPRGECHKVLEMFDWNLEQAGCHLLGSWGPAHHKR
Tyrosine-protein kinase BAZ1B (Homo sapiens), sequence (Q9UIG0 whole entry): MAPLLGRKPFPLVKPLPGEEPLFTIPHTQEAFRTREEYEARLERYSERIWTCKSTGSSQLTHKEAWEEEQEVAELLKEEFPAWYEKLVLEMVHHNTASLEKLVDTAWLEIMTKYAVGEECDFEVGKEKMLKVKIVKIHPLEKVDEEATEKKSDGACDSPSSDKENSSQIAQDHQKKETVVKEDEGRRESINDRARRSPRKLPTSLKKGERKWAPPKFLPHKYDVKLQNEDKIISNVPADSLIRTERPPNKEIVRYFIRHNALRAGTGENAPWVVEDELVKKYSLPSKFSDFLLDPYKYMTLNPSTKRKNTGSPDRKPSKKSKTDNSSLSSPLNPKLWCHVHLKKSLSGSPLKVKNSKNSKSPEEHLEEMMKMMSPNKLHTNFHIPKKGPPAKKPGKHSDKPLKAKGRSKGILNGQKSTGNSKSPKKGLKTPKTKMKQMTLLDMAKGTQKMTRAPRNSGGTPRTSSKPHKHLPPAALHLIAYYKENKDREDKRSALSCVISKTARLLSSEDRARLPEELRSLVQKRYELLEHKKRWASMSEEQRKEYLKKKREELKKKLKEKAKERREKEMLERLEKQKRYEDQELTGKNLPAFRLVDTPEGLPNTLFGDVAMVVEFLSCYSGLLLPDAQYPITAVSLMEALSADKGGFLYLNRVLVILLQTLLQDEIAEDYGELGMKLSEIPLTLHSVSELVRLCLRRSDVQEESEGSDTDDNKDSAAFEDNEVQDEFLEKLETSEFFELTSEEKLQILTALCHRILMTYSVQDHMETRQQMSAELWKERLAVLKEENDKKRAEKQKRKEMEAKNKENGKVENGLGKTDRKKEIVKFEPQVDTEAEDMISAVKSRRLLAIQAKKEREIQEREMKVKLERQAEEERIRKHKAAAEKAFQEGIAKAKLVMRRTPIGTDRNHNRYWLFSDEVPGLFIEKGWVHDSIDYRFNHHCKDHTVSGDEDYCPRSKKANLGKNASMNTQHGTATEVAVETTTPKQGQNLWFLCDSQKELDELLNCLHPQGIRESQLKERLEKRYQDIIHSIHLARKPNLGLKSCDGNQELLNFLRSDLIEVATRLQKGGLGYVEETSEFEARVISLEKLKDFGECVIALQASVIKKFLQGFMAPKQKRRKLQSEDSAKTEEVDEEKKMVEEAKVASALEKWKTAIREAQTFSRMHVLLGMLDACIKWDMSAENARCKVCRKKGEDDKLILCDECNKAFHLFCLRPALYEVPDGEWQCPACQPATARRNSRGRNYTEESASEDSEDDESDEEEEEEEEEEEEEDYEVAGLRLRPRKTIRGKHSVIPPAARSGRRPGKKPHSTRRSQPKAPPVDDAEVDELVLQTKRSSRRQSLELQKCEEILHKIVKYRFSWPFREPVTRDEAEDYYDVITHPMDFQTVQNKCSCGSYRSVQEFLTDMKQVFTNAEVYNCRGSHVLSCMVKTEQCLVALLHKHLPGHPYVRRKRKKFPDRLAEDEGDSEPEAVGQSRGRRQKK
Cyclin-dependent kinase 11B (Homo sapiens), sequence (P21127 whole entry): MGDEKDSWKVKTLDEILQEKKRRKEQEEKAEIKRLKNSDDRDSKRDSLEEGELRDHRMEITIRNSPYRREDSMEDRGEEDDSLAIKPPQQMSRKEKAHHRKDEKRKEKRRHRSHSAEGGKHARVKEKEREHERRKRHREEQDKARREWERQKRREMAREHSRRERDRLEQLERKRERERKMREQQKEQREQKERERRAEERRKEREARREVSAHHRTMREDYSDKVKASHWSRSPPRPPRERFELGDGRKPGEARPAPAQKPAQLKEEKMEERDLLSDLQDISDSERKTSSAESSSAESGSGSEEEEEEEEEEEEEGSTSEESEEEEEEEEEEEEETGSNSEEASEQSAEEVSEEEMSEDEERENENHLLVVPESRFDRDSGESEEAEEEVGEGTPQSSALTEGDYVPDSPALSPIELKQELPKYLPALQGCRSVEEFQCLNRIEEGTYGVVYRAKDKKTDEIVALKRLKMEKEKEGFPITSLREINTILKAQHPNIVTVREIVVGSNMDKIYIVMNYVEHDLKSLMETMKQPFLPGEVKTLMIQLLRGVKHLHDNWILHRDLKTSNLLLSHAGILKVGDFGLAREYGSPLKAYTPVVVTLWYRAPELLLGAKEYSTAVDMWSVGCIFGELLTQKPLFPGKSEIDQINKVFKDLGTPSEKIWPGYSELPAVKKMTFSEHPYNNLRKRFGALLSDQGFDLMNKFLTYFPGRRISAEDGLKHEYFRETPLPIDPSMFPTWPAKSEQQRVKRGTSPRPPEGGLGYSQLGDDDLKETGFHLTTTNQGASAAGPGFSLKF

For `CCN(CC)CCCCNc1ncc2cc(-c3cc(OC)cc(OC)c3)c(NC(=O)NC(C)(C)C)nc2n1`, the % of control [1] was 100%.
With `Cc1cc(CN)cc(C)c1-c1ncn(C)c1-c1cncn1C` the dTM [2] was -1.22 K.
Work on `CC[C@@H]1[C@H](F)C(=O)N[C@@H]1COc1nccc2cc(C(N)=O)c(OC)cc12` [ZIMLOVISERTIB] yielded a % of inhibition [3] of 45.6% and a % of inhibition [4] of -1.1%.
Compound `CN(C)C/C=C/C(=O)Nc1ccc(C(=O)N2CCCC(Nc3ncc(Cl)c(-c4c[nH]c5ccccc45)n3)C2)cc1` (stereo not drawn) has a % of control (Activated CDC42 kinase 1) of 99%.
`Cc1ccc(-c2ccc3c(ccc4sc5c(c43)NC[C@@H](C)NC5=O)n2)cn1` showed a % of inhibition [5] of -17%.
For `Cc1cc(F)c(C(=O)Nc2cccc(-c3nncn3C(C)C)n2)cc1-n1cnc(C2CC2)c1`, the % of control [6] was 99%.
For `CNC(=O)Nc1ccc(-c2nc(N3CC4CCC(C3)O4)c3cnn(C4CCC5(CC4)OCCO5)c3n2)cc1`, the % of control [7] was 99%.
